Values quoted from earlier work, collected in publication PMC11238383, “A review on the cultivation, bioactive compounds, health-promoting factors and clinical trials of medicinal mushrooms Taiwanofungus camphoratus, Inonotus obliquus and Tropicoporus linteus” (Fungal Biology and Biotechnology, 2024).
pIC50: −log10 of the molar value. In brackets after ≈: the same amount, converted by molar mass.

How the values were obtained:
[1] = test system: H1264; design: method as in Baek et al. [203]; settings: ref Baek et al. [203]
[2] = test system: H1299; design: method as in Baek et al. [203]; settings: ref Baek et al. [203]
[3] = test system: Calu-6; design: method as in Baek et al. [203]; settings: ref Baek et al. [203]
[4] = test system: C2C12 cells; design: method as in Kuo et al. [174]; settings: ref Kuo et al. [174]
[5] = test system: C57BL/6J mice; settings: 40 mg/kg/day versus Metformin 300 mg/kg/day; ref [174]
[6] = test system: Streptozotocin-induced diabetic C57BL/6J mice; design: method as in Kuo et al. [178]; settings: ref Kuo et al. [178]
[7] = test system: Hepatitis C virus (HCV) protease; design: method as in My et al. [190]; settings: ref My et al. [190]
[8] = test system: Oxidative stress-induced HepG2 cells; design: method as in Kumar et al. [180]; settings: pretreatment, after 24 h; ref Kumar et al. [180]
[9] = test system: Obesity-induced Wistar rats; design: method as in Chen et al. [181]; settings: ref Chen et al. [181]
[10] = test system: breast cancer cells; design: method as in PMID 25656647; settings: ref [71]
[11] = test system: Chronic alcohol-induced liver disease in C57BL/6J (B6) mice; design: method as in Chang et al. [182]; settings: ref Chang et al. [182]
[12] = test system: C2C12 cells; design: method as in Kuo et al. [177]; settings: in vitro; ref Kuo et al. [177]
[13] = test system: Streptozotocin-induced diabetic C57BL/6J mice; design: method as in Kuo et al. [177]; settings: in vivo; ref Kuo et al. [177]
[14] = test system: High-fat diet-induced C57BL/6J mice; design: method as in Kuo et al. [178]; settings: ref Kuo et al. [178]
[15] = test system: Ultraviolet B-irradiated BALB/cAnN.Cg-Foxn1nu/CrlNarl hairless mice; design: method as in Kuo et al. [184]; settings: topical 25 and 100 μM; ref Kuo et al. [184]
[16] = test system: MCF7, MDA-MB-231, T24 and J82 cells; design: method as in Lu et al. [232]; settings: ref Lu et al. [232]
[17] = test system: Oleic and palmitic acids (O/P) lipid accumulation-induced HepG2 cells; design: method as in Chiu et al. [138]; settings: ref Chiu et al. [138]
[18] = test system: Severe acute respiratory syndrome coronavirus 2 (SARS-CoV-2) virus-infected HepG2 cells; design: method as in Li et al. [35], [38]; settings: ref Li et al. [35], [38]
[19] = test system: 3CL protease; design: method as in Li et al. [35], [38]; settings: ref Li et al. [35], [38]
[20] = test system: aldose reductase; design: method as in Lee et al. [136]; settings: ref Lee et al. [136]
[21] = ref Lee et al. [226]
[22] = test system: LPS-stimulated RAW264.7 cells; design: method as in Huang et al. [212], [243]; settings: ref Huang et al. [212], [243]
[23] = test system: Influenza A H1N1 virus; design: method as in Hwang et al. [13]; settings: 10 uM; ref Hwang et al. [13]
[24] = molecular target: H1N1 neuraminidase; settings: ref [13]
[25] = test system: Streptozotocin-induced diabetic C57BL/6J mice; design: method as in Lin et al. [176]; settings: ref Lin et al. [176]
[26] = test system: High-fat diet-induced C57BL/6J mice; design: method as in Lin et al. [175]; settings: ref Lin et al. [175]
[27] = test system: Chang liver cells; design: method as in Parfenov et al. [216]; settings: I. obliquus; 10^−5 and 10^−3 g/L; ref Parfenov et al. [216]
[28] = test system: Carbon tetrachloride (CCl4) liver damage induced-Sprague Dawley rats; design: method as in Parfenov et al. [216]; settings: I. obliquus; ref Parfenov et al. [216]

## CC(C)=CCC[C@@H](C=O)[C@H]1CC[C@@]2(C)C3=C(CC[C@]12C)[C@@]1(C)CC[C@H](O)C(C)(C)[C@@H]1CC3 [3β-hydroxylanosta-8,24-dien-21-al]
[1]
  IC50: 90.9 µg/mL (≈ 206 µM)
[2]
  IC50: 128.0 µg/mL (≈ 290 µM)
[3]
  IC50: 75.1 µg/mL (≈ 170 µM)

## C=C(CC[C@@H](C)[C@H]1CC[C@H]2C3=C(C(=O)C[C@]12C)[C@@]1(C)CC[C@@H](O)[C@](C)(O)[C@@H]1C[C@@H]3O)C(C)C(=O)O (some centres unmarked) [Antcin K]
[4]
  GLUT4 and phospho-Akt expression: Enhance membrane glucose transporter 4 (GLUT4) and phosphor-Akt expressions
[5]
  antihyperglycemic effect: comparable to Metformin
[6]
  FAS, CPT-1a, PPARα expression: Fatty acid synthase (FAS) expression levels declined while hepatic expression levels of carnitine palmitoyl transferase 1a (CPT-1a) and peroxisome proliferator-activated receptor α (PPARα) rose

## CC(C)=CCOc1ccc(C2=C(CC(C)C)C(=O)OC2=O)cc1 [Antrodin A]
[7]
  half-maximal inhibitory concentration (IC50): Antrodins A to E, except antrodin B, exhibited potent inhibitory effects against the HCV protease, with Antrodin A having the highest potency with a half-maximal inhibitory concentration (IC50) value of 0.9 µg/mL

## COC1=C(OC)[C@H](O)[C@H](C/C=C(\C)CC/C=C(\C)CCC=C(C)C)[C@@H](C)C1=O [Antroquinonol, antroquinonol]
[8]
  rise in ALT and AST caused by ethanol: Antroquinonol pretreatment considerably and dose-dependently decreased the rise in ALT and AST caused by ethanol after 24 h in HepG2 cells
[9]
  hepatoprotective effect: Exerts hepatoprotective effects by inhibiting hepatic lipid accumulation
[10]
  migration and invasion: inhibit the migration and invasion of breast cancer cells

## CC(C)[C@@H](C)/C=C/[C@@H](C)[C@H]1CC[C@H]2C3=CCC4C[C@@H](O)CC[C@]4(C)C3=CC[C@]12C (some centres unmarked) [Antrosterol]
[11]
  hepatoprotective findings: Reduction in serum/hepatic lipids, rise in output of fecal lipid/bile-acid output, amplified hepatic antioxidant activities, reduced serum alcohol level, decrease liver inflammation, fibrosis, serum AST/ALT and TNF-α/IL-1β

## C=C(CC[C@@H](C(=O)O)[C@H]1CC[C@@]2(C)C3=CC[C@H]4C(C)(C)[C@@H](O)CC[C@]4(C)C3=CC[C@]12C)C(C)C [Dehydroeburicoic acid]
[12]
  GLUT4 expression: Higher expression of GLUT4
[13]
  decrease in blood glucose level: 43.6–46.5%

## CC(C)[C@@H](C)/C=C/[C@@H](C)[C@H]1CC[C@H]2C3=CCC4C[C@@H](O)CC[C@]4(C)C3=CC[C@]12C (stereo partly drawn) [Ergostatrien-3β-ol]
[14]
  visceral adipocyte size, hepatic ballooning: Reduced visceral adipocyte size and induced hepatic ballooning degeneration
[15]
  MMP-1, IL-6, iNOS, NF-κB in skin: Significant inhibition of metalloproteinase-1 (MMP-1), IL-6, iNOS and NF-κB in skin

## CC(=O)/C=C(O)/C=C/c1ccc(O)c(O)c1 [Hispolon, hispolon]
[16]
  suppression of cancer cells: Suppressed p53 mutant (MDA-MB-231, T24, and J82) and wild-type (MCF7) cells regardless of p53 status Apoptosis characterized by chromatin condensation and poly (ADP-ribose) polymerase (PARP) increase

## O=c1cc(O)cc([C@H]2c3c(cc(/C=C/c4ccc(O)c(O)c4)oc3=O)O[C@@H]2c2ccc(O)c(O)c2)o1 [Hypholomine B, hypholomine B]
[17]
  lipid accumulation: Significant reduction in lipid accumulation
[18]
  ACE2 gene expression: Reduced the expression of angiotensin-converting enzyme 2 (ACE2) gene
[19]
  3CL protease: Inhibition of 3CL protease
[20]
  aldose reductase inhibition: capable of inhibiting aldose reductase

## CC1=CC(=O)/C(=C/c2ccc(O)c(O)c2)O1 [Inotilone, inotilone]
[21]
  antioxidant activity: Potent antioxidant activity, with higher antioxidant activity than BHA and Trolox in FRAP assay
[22]
  NO, iNOS, NF-κB, MMP-9: Inhibit NO production, iNOS, NF-κB, and MMP-9 expressions, and LPS-induced ERK, JNK, and p38 phosphorylation
[23]
  visible cytopathic effects: 10 uM of both inhibited the formation of visible cytopathic effects, with IC50 values lower than Oseltamivir
[24]
  pIC50: 4.21
  neuraminidase activity: inhibit neuraminidase activity

## C=C(CC[C@@H](C(=O)O)[C@H]1C[C@H](O)[C@@]2(C)C3=C(CC[C@]12C)[C@@]1(C)CC[C@H](O)C(C)(C)[C@@H]1CC3)C(C)C [Sulphurenic acid]
[25]
  insulin and HbA1c: Rise of insulin levels and reduction in the concentration of glycated hemoglobin (HbA1c)
[26]
  PPAR-α expression in the liver: Increased expression of PPAR-α in the liver which facilitated fatty acid oxidation and the reduction of lipid levels

## Melanin
[27]
  increase in viability of liver cells intoxicated with d-galactosamine: 2–2.5 times
[28]
  liver damage findings: Decrease in fat buildup, steatosis, necrosis
